A melting point compilation (Tetko et al.; mined from patent text by program, amines drawn as free bases though some values may be those of a salt)

melting point [°C] | SMILES
79 to 80 | CCCCCCCCCCCCCCC(O)(CCCCC(=O)O)CCCCC(=O)O
60 to 62 | Nc1sc2c(c1C(=O)c1ccc(Cl)cc1)CCN(C(=O)OCc1ccccc1)C2
134 to 136 | O=c1c2ccccc2n(Cc2ccccc2)c2cc(Cl)ccc12
52 to 53 | CCOC(=O)CCc1ccc(NC(C)=O)cc1
185 to 186 | CC1(C)SC(c2ccccc2C(=O)O)NC1C(=O)O (stereo not given)
54 to 56 | C=C(C)C(=O)OCCCCOC(=O)/C=C/c1ccc(OC(=O)OCC)cc1
77 to 78 | CCOC(=O)c1cc2cc(-c3ccc(OC(F)(F)F)cc3)ccc2n1Cc1ccc(C)cc1
175 to 177 | CS(=O)(=O)N(c1ccc([N+](=O)[O-])cn1)S(C)(=O)=O
134 to 136 | C=Cc1cc(CNC(=O)NCc2ccc(C(C)(C)C)cc2)cc(C(F)(F)F)c1NS(C)(=O)=O
161 to 162 | COC(=O)c1ccc(Cn2nc(C(C)(C)C)cc2O)cc1
131 to 133 | Cc1cc(C)nc(N(CSC(=S)N2CCCC2)C(=O)NS(=O)(=O)c2ccccc2Cl)n1
123 to 128 | CC(C)Cc1ccc(C(C)C(=O)ON(C(N)=O)C(C)c2cc3ccccc3s2)cc1 (stereo not given)
115 to 120 | CCC1CCN(C(=O)C(N)CCSCc2cn(C(c3ccccc3)(c3ccccc3)c3ccccc3)cn2)CC1 (stereo not given)
129 to 131 | CC(C)(C)OC(=O)N(CCCn1ncc2cc(C(=O)O)ccc21)c1ccccn1
112 | CC(C)(C)OC(=O)N1CC[C@H](c2ccc3c(c2)OCO3)[C@@H](O)C1 (racemic)
84 to 88 | Cc1c(C)c(O)c(CCC(C)(O)COc2ccc(CC3SC(=O)NC3=O)cc2)c(C)c1O (stereo not given)
119 to 122 | CC(CF)(CF)C(=O)C(Oc1ccc(Cl)cc1)n1cnnc1 (stereo not given)
97 to 98 | CCCCC1CCc2c(OCc3ccc4ccccc4n3)cccc2C1=O (stereo not given)
94 to 97 | N#Cc1cn(CO)cc1-c1ccccc1Cl
167 to 171 | O=C(O)c1ccc2cc(OCCCCCCc3cccc(O)c3O)ccc2c1
192 to 193 | COC1C(O)C(CO)OC1n1cc(C)c(=O)[nH]c1=O (stereo not given)
273 to 274 | CC(=O)NCCNc1ccc(NCCNC(C)=O)c2c1C(=O)c1c(O)ccc(O)c1C2=O
164 | Fc1ccc(Cn2c(NC3CCN(CCNc4ncccn4)CC3)nc3cncnc32)cc1
140 to 141 | CCOc1cc(C(=O)c2ccccn2)ccc1OCCO

melting point [°C] | SMILES
268 to 269 | CCCOc1ccc(S(=O)(=O)N(C)C)cc1C1=NC(=O)C2=NC=NC2=N1
159 to 163 | O=C1CCN(C(=O)c2ccc(Cl)cc2Cl)c2cc(Cl)ccc21
62 to 63 | CCCCc1cc(C(=O)OC)c(N)s1
188 | COc1cc([C@@H](O)[C@@H](C)N2CCC(O)(c3ccccc3)CC2)ccc1O (relative stereo)
188 to 190 | NC(=O)NC1(C(=O)O)CCCc2ncc(Cl)cc21 (stereo not given)
180 to 182 | Cc1cc(F)cc(-c2ccc3c(c2)C2(C=N3)CCCCC2)c1
257 to 260 | O=C(c1ccccc1)N(c1ccccc1)c1ccc(O)cc1
99 to 100 | COc1ccc(Cl)n2nc(SCc3ccccc3)nc12
197 to 199 | Oc1ccccc1-c1nc(-c2ccccc2O)n(Cc2ccncc2)n1
130 | CC(C)OP(=O)(/C=C/C(CO)Cn1cnc2c(N)ncnc21)OC(C)C (stereo not given)
202 to 204 | Oc1ccc(-c2cc3cc(F)ccc3o2)cc1
165 to 168 | COc1cc2c(c3c1OC(C)(C)C3)C(c1cccc(-c3ccc(N)nc3)c1)=NC(C)(C)C2
251 to 253 | Cc1c(C#N)sc2nc(-c3ccccc3)nc(N3CCNCC3)c12
150 to 151 | Cc1c(Sc2ccc(Cl)cc2)nn(-c2cccc(Cl)c2)c(=O)c1C#N
107 to 108 | Cc1ccc(S(=O)(=O)NCCCCOc2ccc(C#N)cc2)cc1
82 to 87 | CCCCNC1CC(C)(C)N(c2nc(N3CCOCC3)nc(N3CCOCC3)n2)C(C)(C)C1
98 to 100 | COc1ccc2c(c1)CCC1C2CCC2(C)C(=NN(C)C)CCC12 (stereo not given)
95.5 to 97.5 | COC(=O)CC1CCN(CCC=C(c2ccccc2)c2ccccc2)C1 (stereo not given)
201 | Cc1cccc(-c2nc(N)c3ccccc3n2)n1
83 to 83.5 | CCN(CC)C(=O)n1ccc(S(=O)(=O)c2c(F)cccc2F)n1
159 to 160 | CS(=O)(=O)c1ccc(-n2nc(C(F)(F)F)cc2-c2ccc(-c3ccco3)cc2)cc1C(F)(F)F
204 to 205 | NC(=O)c1ccc(Nc2nc(N)nc(Cc3c(Cl)ccc4[nH]ccc34)n2)cc1
129 | CC(c1ccccc1)n1c(N)c(C#N)c2c1CCCC2 (stereo not given)
202 to 204 | Cn1nccc1C(=O)c1cc(O)c(O)c(Cl)c1Cl

melting point [°C] | SMILES
91.5 to 92.5 | CCOC(=O)Cc1ccc(NC(=O)c2cc(C(C)C)c(C(C)C)o2)cc1
178 to 180 | Cc1cc(Cl)cc2c(=O)oc(-c3cc(OCC(F)(F)F)nn3-c3ncccc3Cl)nc12
143 to 146 | C=CCNC(=O)C=Cc1cn(C)nc1[N+](=O)[O-]
62 to 65 | CCCCCOc1ccc(-c2ccc(-c3ccccc3CC)cc2)cc1
198 to 202 | O=C(c1ccc(F)cc1)C1CCN(CCCn2c(=O)[nH]c3cc(Cl)c(Cl)cc32)CC1
125 | CCCCc1nnc(-c2ccc(N)cc2)o1
197 | CCc1cccc(C)c1CNc1nc(C(=O)N2CCCC2)cn2c(C)c(C)nc12
57 to 61 | CC1(C)C(=O)C(C(=O)Cc2ccc(Cl)cc2)C(=O)C(C)(C)C1=O
130 to 134 | CCOC(Cc1ccc(NCCc2ccc(OS(C)(=O)=O)cc2)cc1)C(=O)O (stereo not given)
125 | COc1cc(CC(=O)NCCCc2ccc(C)c(C)c2)ccc1OCCN
109 to 110 | Cc1cc(Br)cnc1CCCn1nnc2cc(Cc3cccnc3)cnc21
250 to 252 | C[Si](C)(CCCc1nnc(N)nc1O)c1ccccc1
98 to 100 | COc1ccc(CCNC(=S)N2CCN(c3ncnc4cc(OC)c(OC)cc34)CC2)cc1OC
140 to 141 | COC(=O)c1ccc2cc(C(O)c3ccc4c(c3)C3(C)C5(C)CCC(C5)C3(C)O4)ccc2c1 (stereo not given)
127 to 129 | CN(C(=NC#N)Nc1cccnc1)C(NC(=O)c1ccc(Cl)cc1)C(C)(C)C (stereo not given)
108 to 109 | CC(C)(C)OC(=O)N1CCN(Cc2nc(-c3cc(C(C)(C)C)c(O)c(C(C)(C)C)c3)cs2)CC1
90.4 to 93.5 | OCC1CC2CC2N1c1cncc(Br)c1 (stereo not given)
100 to 102 | COC(=O)c1coc2c1C(=O)CCC2
154 to 158 | CCCCCCCCCCCCNC(=O)c1cc(-c2cccc(C(F)(F)F)c2)c(OCC(=O)O)c(-c2cccc(C(F)(F)F)c2)c1
127 to 129 | Cn1cc(C(=O)c2ccncc2)cc1C(=O)c1ccccc1
220 to 222 | O=C(Nc1ccccc1)OCC1(COC(=O)Nc2ccccc2)CS(=O)c2ccccc2C1=O (stereo not given)
89 | CN1CCC(c2c[nH]c3ccc(C(=O)c4ccc(F)cc4)cc23)CC1
109 | CCOC(=O)c1ccc(CCC=O)cc1
102 to 104 | CC(=O)C(C(=O)c1ccc(Cl)cc1)C(=O)c1ccc(C(F)(F)F)cc1[N+](=O)[O-] (stereo not given)

melting point [°C] | SMILES
58 to 60 | O=C1CCOc2ccc(Oc3ccccc3)cc21
185 to 189 | O=C(NCc1ccccc1)c1cc(O)c(O)c([N+](=O)[O-])c1
169 to 174 | COc1cccc2c1C(=O)N(CCl)S2(=O)=O
165 | CC(=NO)c1ccc(N)c(C(=NO)c2ccccc2F)c1
280 to 282 | CS(=O)(=O)Cc1cnc2ccccc2c1O
199 to 201 | NC(=O)Nc1ccc(OCCn2ccnc2)cc1
> 250 | NC(=O)C=Cc1ccc(NC(=O)C=C2CC(C(=O)OCc3ccccc3)Nc3cc(Cl)cc(Cl)c32)cc1 (racemic)
80 to 82 | CCOC(=O)CN1Cc2ccccc2C[C@H](NC(=O)OCc2ccccc2)C1=O
252 to 255 | CCCn1nc2c(N)nc3ncccc3c2c1CC(C)(C)O
226 to 229 | COC(=O)C(NS(=O)(=O)c1ccc(-c2ccc(NC(=O)c3cc4c(OC(C)C)cccc4o3)cc2)cc1)C(C)C (stereo not given)
138 to 140 | COC1=CC(=O)c2c(C)cccc2C1=O
172 to 174 | COc1nc(-c2ccccc2Cl)c2ccsc2n1
184 to 186 | Cc1nc(C)c(Cl)c(NCc2ccc(Oc3ccc4ncc([N+](=O)[O-])n4n3)c(Cl)n2)n1
204 | Cc1cc(-c2ccnn2-c2ccc(S(N)(=O)=O)c(F)c2C(F)F)ccc1-c1cscn1
113 to 114 | CCNS(=O)(=O)c1ccc(C2=C(c3cccc(F)c3)C(=O)C(C)(C)O2)cc1
140 to 143 | CCN(c1ccc(C)cc1)c1cc(NC)nc(C)n1
126 to 128 | N=C(NCC1(c2ccc(Cl)cc2)CC1)NN=Cc1c(Cl)cccc1Cl
101 to 102 | Clc1nc(Cl)c2cc(N3CCCCC3)ccc2n1
98 to 100 | CN1C(=O)C(c2cc[nH]c2)(c2cccc(OCc3ccccc3)c2)N=C1N (stereo not given)
150 to 152 | Nc1ccc2nc3c(nc2c1)CCCC3
190 to 194 | Cc1nc(S(=O)(=O)n2ccc(/C=C/C(=O)NO)c2)cn1C
127 | O=C(C[C@@H](CCCC1CCCCC1)c1nc(CNC2CCCCC2)no1)NO
65 to 69 | CCCCN(C)C(=NC#N)NCc1cccnc1

SMILES | melting point [°C]
CCOC(=O)c1ncn2c1CN=C(c1ccccc1)c1cc(Br)ccc1-2 | 210 to 212
CCCCN(CCCC)Cc1nc(-c2ncn3c2CN(C)C(=O)c2c(Cl)cccc2-3)no1 | 140 to 142
CN1CC(CCN2CC(=O)NC2=O)CC2c3cccc4[nH]cc(c34)CC21 (stereo not given) | 242 to 244
O=C(NCc1ccc(Cl)cc1)c1cn(CCN2CCCC2)c2sc(CN3CCOCC3)cc2c1=O | 178 to 180
O=C(NC1C(=O)N(CCCO)c2ccccc2N(c2ccccc2)C1=O)Oc1ccccc1 (stereo not given) | 203 to 204
